{"source": "patent US9695155B2", "about": "“Herbicidal substituted pyrimidinyloxy benzene compounds” (E. I. DU PONT DE NEMOURS AND COMPANY, priority 2013, dated 2017)", "key": {"large (Lg) crabgrass [1]": {"system": "large (Lg) crabgrass", "test": "Test C preemergence", "assay_type": "in vivo, Digitaria sanguinalis", "settings": "for Crabgrass, Large plant response rating: preemergence, scale 0 (no effect) to 100 (complete control)", "procedure,_shortened": "(§1)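 Whole-plant greenhouse test with surfactant-containing solvent formulation, applied preemergence to sown loam–sand pots or postemergence to 2–18 cm plants. Scored by eye 13 to 15 days on, 0–100 scale.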"}, "wheat, winter": {"system": "wheat, winter", "test": "Test C postemergence", "assay_type": "in vivo, Triticum aestivum", "settings": "for Plant response rating (0 to 100), Wheat: postemergence; for Plant response rating, Wheat: Postemergence, scale 0 to 100 (0 no effect, 100 complete control)", "procedure,_shortened": "as §1"}, "ragweed": {"system": "ragweed", "test": "Test C postemergence", "assay_type": "in vivo, Ambrosia elatior", "settings": "for Plant response rating (0 to 100), Ragweed: postemergence; for Plant response rating, Ragweed: Postemergence, scale 0 to 100 (0 no effect, 100 complete control)", "procedure,_shortened": "as §1"}, "johnsongrass": {"system": "johnsongrass", "test": "Test C preemergence", "assay_type": "in vivo, Sorghum halepense", "settings": "for Johnsongrass plant response rating: preemergence, scale 0 (no effect) to 100 (complete control)", "procedure,_shortened": "as §1"}, "kochia": {"system": "kochia", "test": "Test C postemergence", "assay_type": "in vivo, Kochia scoparia", "settings": "for Plant response rating (0 to 100), Kochia: postemergence; for Plant response rating, Kochia: Postemergence, scale 0 to 100 (0 no effect, 100 complete control)", "procedure,_shortened": "as §1"}, "rice": {"system": "rice", "test": "Test B flooded paddy test", "assay_type": "in vivo, Oryza sativa", "settings": "Flood, 250 g ai/ha; 0 to 100 scale where 0 is no effect and 100 is complete control", "procedure,_shortened": "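Flooded to 3 cm at the 2-leaf stage, pots received compound through the paddy water and were kept at that depth under greenhouse conditions. After 13–15 days, effect was rated by eye relative to controls, 0 = none and 100 = complete control.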"}, "wild oat": {"system": "wild oat", "test": "Test C postemergence", "assay_type": "in vivo, Avena fatua", "settings": "for Plant response rating (0 to 100), Oat, Wild: postemergence; for Plant response rating, Oat, Wild: Postemergence, scale 0 to 100 (0 no effect, 100 complete control)", "procedure,_shortened": "as §1"}, "large (Lg) crabgrass [2]": {"system": "large (Lg) crabgrass", "test": "Test A preemergence", "assay_type": "in vivo, Digitaria sanguinalis", "procedure,_shortened": "(§2)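 Greenhouse pot test, loam/sand soil. Formulation: non-phytotoxic solvent mix plus surfactant. Pre: directed spray onto soil after sowing. Post: plants at 1–2 leaf, 2–10 cm. Rated visually vs untreated controls at ~10 d, 0 (no effect) to 100 (complete control).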"}, "corn": {"system": "corn", "test": "Test A preemergence", "assay_type": "in vivo, Zea mays", "procedure,_shortened": "as §2"}, "lambsquarters": {"system": "lambsquarters", "test": "Test C preemergence", "assay_type": "in vivo, Chenopodium album", "settings": "for Lambsquarters plant response rating: preemergence, scale 0 (no effect) to 100 (complete control)", "procedure,_shortened": "as §1"}, "[3]": {"settings": "Preemergence, 31 g ai/ha, scale 0 to 100, 0 no effect, 100 complete control"}, "[4]": {"settings": "125 g ai/ha, 0 to 100 scale where 0 is no effect and 100 is complete control"}, "[5]": {"settings": "500 g ai/ha, 0 to 100 scale, 0 no effect, 100 complete control, approx. 10 days"}}, "data": [{"smiles": "FC(F)(F)c1cnn(-c2ccccc2Oc2ncc(Cl)cn2)c1", "note": "[Compound 16]", "values": [{"measurement": "Crabgrass, Large plant response rating", "setting": "large (Lg) crabgrass [1]; 62 g ai/ha", "result": 100}, {"measurement": "Crabgrass, Large plant response rating", "setting": "large (Lg) crabgrass [1]; 125 g ai/ha", "result": 100}, {"measurement": "Crabgrass, Large plant response rating", "setting": "large (Lg) crabgrass [1]; 250 g ai/ha", "result": 100}, {"measurement": "Plant response rating, Crabgrass, Large", "setting": "large (Lg) crabgrass [1]; [3]", "result": 98}, {"measurement": "Plant response rating (0 to 100), Wheat", "setting": "wheat, winter; 125 g ai/ha", "result": 35}, {"measurement": "Plant response rating (0 to 100), Wheat", "setting": "wheat, winter; 250 g ai/ha", "result": 35}, {"measurement": "Plant response rating, Wheat", "setting": "wheat, winter; 31 g ai/ha, 13 to 15 days", "result": 5}, {"measurement": "Plant response rating, Wheat", "setting": "wheat, winter; 62 g ai/ha", "result": 15}, {"measurement": "Plant response rating (0 to 100), Ragweed", "setting": "ragweed; 125 g ai/ha", "result": 40}, {"measurement": "Plant response rating (0 to 100), Ragweed", "setting": "ragweed; 250 g ai/ha", "result": 90}, {"measurement": "Plant response rating, Ragweed", "setting": "ragweed; 31 g ai/ha, 13 to 15 days", "result": 15}, {"measurement": "Plant response rating, Ragweed", "setting": "ragweed; 62 g ai/ha", "result": 30}, {"measurement": "Johnsongrass plant response rating", "setting": "johnsongrass; 62 g ai/ha", "result": 85}, {"measurement": "Johnsongrass plant response rating", "setting": "johnsongrass; 125 g ai/ha", "result": 100}, {"measurement": "Johnsongrass plant response rating", "setting": "johnsongrass; 250 g ai/ha", "result": 100}, {"measurement": "Plant response rating, Johnsongrass", "setting": "johnsongrass; [3]", "result": 0}, {"measurement": "Plant response rating (0 to 100), Kochia", "setting": "kochia; 125 g ai/ha", "result": 98}, {"measurement": "Plant response rating (0 to 100), Kochia", "setting": "kochia; 250 g ai/ha", "result": 100}, {"measurement": "Plant response rating, Kochia", "setting": "kochia; 31 g ai/ha, 13 to 15 days", "result": 35}, {"measurement": "Plant response rating, Kochia", "setting": "kochia; 62 g ai/ha", "result": 80}, {"measurement": "Plant response rating, Rice", "setting": "rice", "result": 40}, {"measurement": "Plant response rating (0 to 100), Oat, Wild", "setting": "wild oat; 125 g ai/ha", "result": 35}, {"measurement": "Plant response rating (0 to 100), Oat, Wild", "setting": "wild oat; 250 g ai/ha", "result": 45}, {"measurement": "Plant response rating, Oat, Wild", "setting": "wild oat; 31 g ai/ha, 13 to 15 days", "result": 25}, {"measurement": "Plant response rating, Oat, Wild", "setting": "wild oat; 62 g ai/ha", "result": 35}, {"measurement": "Crabgrass, Large plant response rating", "setting": "large (Lg) crabgrass [2]; [4]", "result": 100}, {"measurement": "Crabgrass, Large plant response rating", "setting": "large (Lg) crabgrass [2]; [5]", "result": 100}, {"measurement": "Corn plant response rating", "setting": "corn; [4]", "result": 10}, {"measurement": "Corn plant response rating", "setting": "corn; [5]", "result": 30}, {"measurement": "Lambsquarters plant response rating", "setting": "lambsquarters; 62 g ai/ha", "result": 80}, {"measurement": "Lambsquarters plant response rating", "setting": "lambsquarters; 125 g ai/ha", "result": 80}, {"measurement": "Lambsquarters plant response rating", "setting": "lambsquarters; 250 g ai/ha", "result": 90}, {"measurement": "Plant response rating, Lambsquarters", "setting": "lambsquarters; [3]", "result": 20}]}]}
